# Test results reported in patent publication US10226509B2, “Lymphangiogenesis inhibitors for cancer and for graft survival” (TUFTS UNIVERSITY, priority 2014, dated 2019).
# “Also recorded” adds a separate entry of the source.
# Key:
# mouse corneas [1] = assay: Mouse model of suture-induced inflammatory corneal lymphangiogenesis; format: in vivo; details: subconjunctival injections days 0, 2, 4, 6; TDG 200 mM; Gal-8N 15 μg; Prox1-EGFP mice
# Source text: The mouse model of suture-induced lymphangiogenesis was used as described in Cho, Y. K., et al. 2012. Invest Ophthalmol Vis Sci 53:685-692 and Cursiefen, C., et al. 2004. Invest Ophthalmol Vis Sci 45:1117-1124. Two 11-0 sutures were placed intrastromally about 2 mm from the limbus at the 12 and 6 o'clock positions in the Prox1-EGFP reporter mice. After surgery, a veterinary ophthalmic ointment was applied to prevent infection. Sutures were left in place for 7 days. To assess the effect of galectin inhibitors on suture-induced lymphangiogenesis, 10 μL of vehicle (PBS), TDG (200 mM in PBS), or Gal-8N (15 μg in PBS) were subconjunctivally injected on post-surgery days 0, 2, 4 and 6 using a 32 gauge needle with a 10 μL syringe (Hamilton). On day 7 post-surgery, mouse corneas were harvested and processed for staining with anti-LYVE-1 as described in examples herein. The areas of lymphatic vessels covering the whole corneas were calculated.
# There is much interest in finding ways to inhibit prolymphangiogenic factors as means of suppressing cancer metastasis, transplant rejection and chronic inflammation. To determine whether galectins can be targeted to control lymphangiogenesis, a well-established in vivo model of lymphangiogenesis was used. […] At the end of the treatment period, lymphatic vessel areas were quantified.
# [2] = tested on: VEGF-C-induced LEC sprouting; assay: LEC sprouting assay: VEGF-C-induced sprouting; format: cell-based, human
# Method: (§1) LEC spheroids were generated by seeding primary LECs at passage 4 or 5 in each well of 384-well hanging-drop plates (3D Biomatrix) in complete EGM-2 MV medium containing 0.25% methyl cellulose according to the manufacturer's instructions (750 cells/well). After 18 hours, LEC spheroids were collected, resuspended in serum-free EBM-2 basal medium, and mixed with collagen solution (PureCol collagen, Advanced BioMatrix, 2.2 mg/ml in M199 medium, pH adjusted to 7.4 with NaHCO3 and NaOH). Aliquots of the LEC spheroid/collagen mixture (250 μl/well of 48-well plate) were incubated in the presence or absence of various test agents for 24 hr. At the end of the incubation period, spheroids were stained with Calcein AM (Invitrogen, 1 μg/mL, 37° C., and 30 min). Fluorescent images were acquired using the EVOS FL cell imaging system, pixels were inverted for better visualization and cumulative length of each sprout was calculated. Results were expressed as fold change compared to corresponding controls. It was observed that sprout lengths vary from passages to passages. Test agents used included thiodigalactoside (10 to 50 mM, Carbosynth), 3′-sialyl lactose (2 to 10 mM, Carbosynth), 6′-sialyl lactose (2 to 10 mM, Carbosynth), LY294002 (20 μM, Abeam), U0126 (20 μM, Abeam), PD0325901 (1 μM, Selleckchem), human VEGFR-3-Fc chimera (10 μg/ml, R&D), human VEGFR-2-Fc chimera (10 μg/ml, R&D), Avastin (10 μg/ml, bevacizumab, Genentech/Roche), human control IgG (10 μg/ml, Southern Biotech), anti-human podoplanin functional grade antibody (10 μg/ml, eBioscience), and rat IgG2a κ isotype control functional grade antibody (10 μg/ml, eBioscience).
# In this assay, the LEC spheroids were treated with VEGF-C (50 ng/ml) in the presence or absence of 0.75 μM of Gal-8 for 24 hours, and then accumulated sprout lengths were quantified. […] Synergistic effect of Gal-8 on VEGF-C-induced LEC sprouting was dose-dependent. […] At concentrations >0.5 μM Gal-8, there was no further increase in the degree of VEGF-C-induced lymphangiogenesis (FIG. 4C).
# To further characterize the role of carbohydrate-mediated recognition in VEGF-C-induced lymphangiogenesis, LEC spheroids were stimulated with VEGF-C (50 ng/ml) in the presence or absence of three different galectin inhibitors. […] Therefore, the data establishes the critical role of Gal-8-mediated carbohydrate-mediated recognition in VEGF-C-induced lymphangiogenesis.
# [3] = tested on: Gal-8-induced LEC sprouting; assay: LEC sprouting assay: Gal-8-induced sprouting with inhibitors or knockdown; format: cell-based, human; details: Gal-8 0.75 μM, 24 h; TDG 20 mM; LY294002 20 μM; U0126 20 μM; PD0325901 1 μM; Avastin 10 μg/ml; Obtustatin 4 μM; antibodies 20 μg/ml; siRNA-transfected LECs
# Method: as §1, with “It was observed that sprout lengths vary from passages to passages.” left out
# To determine the role of these pathways on Gal-8-induced lymphangiogenesis, LEC spheroids were stimulated with Gal-8 (0.75 μM) in the presence or absence of PI3K inhibitor (LY294002, 20 μM) and two different MEK inhibitors (U0126, 20 μM; PD0325901, 1 μM). After overnight treatment with Gal-8, accumulated sprout lengths were quantified.
# [4] = tested on: VEGF-A-induced LEC sprouting; assay: LEC sprouting assay: VEGF-A-induced sprouting; format: cell-based, human; details: VEGF-A 50 ng/ml; 10 μg/ml
# Method: LEC spheroids were generated by seeding primary LECs at passage 4 or 5 in each well of 384-well hanging-drop plates (3D Biomatrix) in complete EGM-2 MV medium containing 0.25% methyl cellulose according to the manufacturer's instructions (750 cells/well). After 18 hours, LEC spheroids were collected, resuspended in serum-free EBM-2 basal medium, and mixed with collagen solution (PureCol collagen, Advanced BioMatrix, 2.2 mg/ml in M199 medium, pH adjusted to 7.4 with NaHCO3 and NaOH). Aliquots of the LEC spheroid/collagen mixture (250 μl/well of 48-well plate) were incubated in the presence or absence of various test agents for 24 hr. […] Fluorescent images were acquired using the EVOS FL cell imaging system, pixels were inverted for better visualization and cumulative length of each sprout was calculated. Results were expressed as fold change compared to corresponding controls. […]
# In addition, investigations were performed to determine whether VEGF-A/VEGFR-2 pathway, which also promotes lymphangiogenesis, is involved in Gal-8-mediated lymphangiogenesis. LEC spheroids were stimulated with Gal-8 (0.75 μM) in the presence or absence of VEGFR-3-Fc, VEGFR-2-Fc (10 μg/ml), Avastin (bevacizumab) (10 μg/ml) or control IgG (10 μg/ml) for 24 hours and then accumulated sprout lengths were quantified. […]
# PDPN = assay: Cell surface expression of PDPN by flow cytometry; format: cell-based, human; details: 30 min post-treatment; VEGF-C 50 ng/ml
# Method: (§2) Primary LECs were serum-starved overnight in basal EBM-2 medium. The cells were incubated with or without VEGF-C (50 ng/ml, PeproTech) or Gal-8 (0.2 μM) in serum-free EBM-2 medium for 10 and 30 min. At the end of the incubation period, cells were lifted with StemPro® Accutase® cell dissociation reagent (Invitrogen), washed with PBS and fixed with 4% paraformaldehyde/PBS on ice for 10 min, and were then stained using rat anti-human PDPN (1:500, BioLegend) and mouse anti-human VEGFR-3 (clone 9D9F9) (1:100, BioLegend) primary antibodies in cell staining buffer (BioLegend, 45 min on ice) and Alexa Fluor® 488 donkey anti-rat and Alexa Fluor® 647 anti-mouse secondary antibodies (1:1000, Invitrogen, 30 min on ice). For negative control, the primary antibodies were omitted. The stained cells were fixed with 2% paraformaldehyde/PBS, analyzed with BD FACSCalibur, and the mean fluorescence intensity of VEGFR-3 and PDPN were quantified with the FlowJo software (version 9.5.2).
# mouse corneas [5] = assay: Corneal mouse micropocket lymphangiogenesis assay; format: in vivo; details: for mean lymphatic vessel areas: seven days
# Method: The corneal micropocket lymphangiogenesis assay was performed using implants containing a test agent, hydron (polyhydroxylmethylmethacrylate), and sucralfate (Cao, R., et al. 2011. Nat Protoc 6:817-826; Rogers, M. S., et al. 2007. Nat Protoc 2:2545-2550). Test agents included full-length Gal-8 (40-320 ng/pellet) and VEGF-C (160 ng/pellet). Implants containing hydron and sucralfate alone served as negative controls. The mice were anesthetized by intraperitoneal injection of a mixture of ketamine (90-120 mg/kg) and xylazine (10 mg/kg). The eyes were topically anesthetized with proparacaine and were gently proptosed (forwardly displaced) with forceps. Using a corneal blade and a stereoscope, intrastromal linear keratotomy was performed about 2 mm from the limbus. Using a von Graefe knife (Miltex), a pocket was extended towards the limbus, and the pellet was maneuvered into the pocket. The wound was coated with a veterinary ophthalmic ointment (Akorn) to prevent infection. Mouse corneas were harvested 7 days after pellet implantation, fixed in 4% paraformaldehyde/PBS (1 hour at 4° C.), washed with PBS, and fixed again in iced acetone (15 min at −20° C.). To quantitate the extent of lymphangiogenesis in Prox-1-EGFP reporter mice, flat mounts of the dissected corneas were evaluated by fluorescence microscopy. Fluorescent images were acquired by EVOS FL cell imaging system (Invitrogen), and vessel areas were calculated using the formula (Rogers, M. S., et al. 2007. Nat Protoc 2:2545-2550): vessel area=pellet distance×vessel length×clock hours×[…]. To quantitate the extent of lymphangiogenesis in WT and PDPN-deficient mice, corneas were stained with eFluor 570-anti-mouse LYVE-1 (clone ALY7, eBioScience, and 1:75) in 10% goat serum/0.2% Triton X-100/PBS overnight, 4° C. After several washes with 0.2% Triton X-100/PBS, the corneas were flattened and mounted with VECTASHIELD mounting medium (Vector Laboratories) and evaluated by fluorescence microscopy. In some examples, for comparisons, corneas were stained with Alexa Fluor® 488-anti-mouse CD31 (clone MEC13.3, 1:100, BioLegend) to visualize blood vessels.
# VEGFR-3 = assay: Cell surface expression of VEGFR-3 by flow cytometry; format: cell-based, human; details: Gal-8 0.2 μM or VEGF-C 50 ng/ml
# Method: as §2
Molecule,effect on suture-induced corneal lymphangiogenesis (mouse corneas [1]),"effect on VEGF-C-induced LEC sprouting (in words) ([2]; VEGF-C 50 ng/ml, 24 h)",effect on the synergistic effect of Gal-8 on VEGF-C-induced sprouting ([2]; VEGF-C plus Gal-8),effect on Gal-8-induced LEC sprouting (in words) [3],effect on VEGF-A-induced LEC sprouting (in words) [4],decrease of cell surface expression of PDPN (PDPN),"extent of vessel formation in galectin-8 KO mice compared to WT (mouse corneas [5]; 160 ng pellet, one week)","mean lymphatic vessel areas (mouse corneas [5]; PDPN KO mice, 160 ng pellet) [mm^2]","mean lymphatic vessel areas (mouse corneas [5]; WT mice, 160 ng pellet) [mm^2]","lymphangiogenesis induced by pellet in cornea (in words) (mouse corneas [5]; one week after implantation, Gal-8 40-320 ng/pellet, VEGF-C 160 ng, WT or Prox1-EGFP mice)",decrease of cell surface expression of VEGFR-3 (VEGFR-3)
"OC[C@H]1O[C@@H](S[C@@H]2O[C@H](CO)[C@H](O)[C@H](O)[C@H]2O)[C@H](O)[C@@H](O)[C@H]1O [TDG, thiodigalactoside, reference compound]",significantly suppressed,inhibited,almost completely inhibited,almost completely inhibited,,,,,,,
Avastin: an antibody targeted against VEGF-A,,,,had no effect,almost completely abolished,,,,,,
VEGF-C: lymphangiogenic growth factor used as positive control (protein) AHYNTEILKSIDNEWRKTQCMPREVCIDVGKEFGVATNTFFKPPCVSVYRCGGCCNSEGLQCMNTSTSYLSKTLFEITVPLSQGPKPVTISFANHTSCRCMSKLDVYRQVHSIIRR,,,,,,about 5%,significantly reduced,0.67,1.35,markedly induced both hemangiogenesis and lymphangiogenesis; also recorded: induce robust growth of lymphatic vessels,about 40%
